Assays:
[1] = Lipophilicity was determined; assay type: physicochemical; conditions: octanol/water
Phosphodiesterase 1 = Phosphodiesterase 1 (Rattus norvegicus, UniProt Q63421+Q9EPR9+Q01066); experiment: Inhibition of Phosphodiesterase 1 from rat liver
[2] = target: cGMP-specific 3',5'-cyclic phosphodiesterase (Homo sapiens, UniProt O76074); experiment: Inhibition of Phosphodiesterase 5 from human corpus cavernosum
Phosphodiesterase 3 = Phosphodiesterase 3 (Homo sapiens, UniProt Q14432+Q13370); experiment: Inhibition of Phosphodiesterase 3 from rabbit platelets; design: species or system Oryctolagus cuniculus; conditions: target entry is the homologue from another species

SMILES | logD [1] | IC50 (Phosphodiesterase 1) | IC50 [2] | IC50 (Phosphodiesterase 3)
CCCc1nn(C)c2c(=O)[nH]c(-c3cc(S(=O)(=O)N4CCN(C)CC4)ccc3OCC)nc12 | 2.7 | – | – | –
CCCc1n[nH]c2c(O)nc(-c3ccccc3OCC)nc12 | – | 0.86 µM | 0.082 µM | –
CCCc1n[nH]c2c(O)nc(-c3ccccc3O)nc12 | – | – | – | > 100 µM
CCCc1n[nH]c2c(=O)[nH]c(-c3ccccc3)nc12 | – | – | – | 63 µM
CCCc1nn(C)c2c(O)nc(-c3cc(S(=O)(=O)N4CCN(C(N)=O)CC4)ccc3OCC)nc12 | 2.3 | 0.11 µM | – | 34 µM
CCOc1ccccc1-c1nc2c(C)nn(C)c2c(=O)[nH]1 | – | 3.3 µM | – | > 100 µM
CCCc1nn(C)c2c(=O)[nH]c(-c3ccccc3[N+](=O)[O-])nc12 | – | – | – | > 100 µM
CCCc1nn(C)c2c(=O)[nH]c(-c3ccccc3OCC3CC3)nc12 | – | – | – | 47 µM
CCCc1nn(C)c2c(=O)[nH]c(-c3ccccc3NS(C)(=O)=O)nc12 | – | – | – | 83 µM
CCCc1nn(C)c2c(=O)[nH]c(-c3ccccc3OCC)nc12 | 4 | 0.79 µM | 0.027 µM | > 100 µM
CCCc1nn(C)c2c(=O)[nH]c(-c3cc(S(=O)(=O)N4CCNCC4)ccc3OCC)nc12 | 1.5 | 0.39 µM | – | > 100 µM
CCCc1nn(C)c2c(=O)[nH]c(-c3cc(S(=O)(=O)N4CCN(CCO)CC4)ccc3OCC)nc12 [LODENAFIL] | 2 | 0.46 µM | – | 62 µM
CCCOc1ccccc1-c1nc2[nH]nnc2c(=O)[nH]1 [ZAPRINAST] | – | 9.4 µM | – | > 100 µM

Source: ChEMBL document CHEMBL1129133 (Bioorg Med Chem Lett, 1996)
